Patent US20200096503A1, “CELL MEMBRANE COATED MAGNETIC NANOPARTICLES AND ASSAYS FOR IDENTIFICATION OF TRANSMEMBRANE PROTEIN-BINDING COMPOUNDS” (The Board of Trustees of The University of Alabama, priority 2018, published 2020)

Columns and labels:
[1] = tested on: nicotinic receptors; experiment: Ligand fishing with CMNPs with immobilized nicotinic receptors, artificial mixture of known binders and non-binders; assay type: binding; conditions: equimolar (100 nM) artificial mixture; three washes with ammonium acetate buffer; elution buffer:methanol (9:1, v/v)
Experimental: Fishing experiments can be used to evaluate the CMNP assay. As an example, CMNPs were constructed with immobilized nicotinic receptors. Parameters include selectivity, detection limit, stability, and reuse of CMNPs. The assay or fishing experiment (FIG. 3A) involves magnetic separation of CMNPs with bound compounds after 20 min incubation in an artificial mixture of known binders and nonbinders. After 3 washes with buffer, receptor-bound compounds are released during the elution process. Eluted compounds can be analyzed by high-performance liquid chromatography coupled with diode-array detection and electrospray ionization tandem mass spectrometry (HPLC-DAD-MS).
(§1) Screening experiments can be conducted with samples of various level of complexity (artificial mixtures, natural extracts with known binders). First, artificial mixtures of known binders and non-binders can be used to evaluate selectivity. In a particular example, CMNPs containing nicotinic receptors were prepared. An artificial equimolar (100 nM) mixture of known binders and non-binders was also prepared. Known binders included known nicotinic receptor binders: nicotine (#1), anabasine (#2), cytisine (#3) and non-binders: butyrylcholine iodide (#4), berberine (#5), warfarin (#6) and caffeic acid (#7). First, the CMNPs (˜10^9) were placed in 0.5 mL artificial mixture and incubated. CMNPs were subsequently washed three times with ammonium acetate buffer. After washing, CMNPs were eluted with a buffer:methanol (9:1, v/v) mixture. In both the washing and elution steps, CMNPs were separated from supernatant using a magnet.

[2] = target: T1, TrkB receptors (Homo sapiens, UniProt Q16620); experiment: Fishing experiments with CMNPs with immobilized TrkB receptors, artificial mixture; assay type: binding; conditions: equimolar (100 nM) mixture, HPLC-ESI-MS of washing and elution profiles
T1 construct: expressed in transfected cells; host or cells: SH-SY5Y neuroblastoma cells stably overexpressing TrkB
Experimental: Functional TrkB receptors (example of tyrosine kinase receptors) were immobilized on nanoparticles using the CMNPs technology described herein. Neuroblastoma SH-SY5Y cell line stably overexpressing TrkB receptors were used. Cell membrane fragments and nanoparticles used in the preparation of CMNPs were obtained using the previously optimized protocols, as described for the nicotinic receptors.
The fishing experiments were performed using the procedure previously optimized and described herein for nicotinic receptors. Washing and elution steps were performed using solvents previously reported for nicotinic receptor experiments. The difference between nicotinic and TrkB receptor experiments was with the type of artificial mixture components.

[3] = tested on: CMNPs prepared using parental HEK cell line not expressing nicotinic receptors; experiment: Fishing with negative control CMNPs prepared from parental HEK cell line not expressing nicotinic receptors; assay type: binding; conditions: fishing experiments, data not shown
Experimental: as §1
As an example, CMNPs containing nicotinic receptors were used to screen a different set of potential binders in a crude mixture: that of tobacco smoke condensates (FIG. 5). The results obtained with nicotinic receptor CMNPs were compared with those obtained for negative control CMNPs. […] Therefore, the only difference between nicotinic and negative control CMNPs is the absence of nicotinic receptors in control CMNPs. After three washes with ammonium acetate buffer, the CMNPs were eluted using first ammonium acetate buffer:methanol mixture (9:1, v/v; elutions 1-3), and then ammonium acetate buffer methanol mixture (1:9, v/v, elution 4).

[4] = tested on: negative control CMNPs prepared with the parental SH-SY5Y cell line without TrkB receptors; experiment: Fishing with negative control CMNPs prepared with the parental SH-SY5Y cell line without TrkB receptors; assay type: binding
Source text: The use of negative control CMNPs prepared with the parental SH-SY5Y cell line without TrkB receptors allowed discernment between specific and non-specific interactions. […] Compounds interacting only with CMNPs expressing TrkB receptors and not interacting with negative control CMNPs are specifically binding with TrkB receptors.

[5] = target: T1, TrkB receptors; experiment: Conversion of ATP to ADP by immobilized TrkB receptors on CMNPs (HPLC-ESI-MS); assay type: biochemical; conditions: for conversion of ATP to ADP by CMNPs with TrkB receptors: 5 mM ATP, 100 μM activator
Experimental: To further test the activity of the immobilized TrkB receptors, additional experiments that focused on determining the ability of the immobilized receptors to convert ATP to ADP were performed, a process commonly performed by all types of tyrosine kinase receptors. Tyrosine kinases, when active, convert ATP to ADP as they use phosphate groups to phosphorylate targeted proteins in the process of signal transduction inside a cell. […] 37° C.

T1 sequence (Q16620 32-822): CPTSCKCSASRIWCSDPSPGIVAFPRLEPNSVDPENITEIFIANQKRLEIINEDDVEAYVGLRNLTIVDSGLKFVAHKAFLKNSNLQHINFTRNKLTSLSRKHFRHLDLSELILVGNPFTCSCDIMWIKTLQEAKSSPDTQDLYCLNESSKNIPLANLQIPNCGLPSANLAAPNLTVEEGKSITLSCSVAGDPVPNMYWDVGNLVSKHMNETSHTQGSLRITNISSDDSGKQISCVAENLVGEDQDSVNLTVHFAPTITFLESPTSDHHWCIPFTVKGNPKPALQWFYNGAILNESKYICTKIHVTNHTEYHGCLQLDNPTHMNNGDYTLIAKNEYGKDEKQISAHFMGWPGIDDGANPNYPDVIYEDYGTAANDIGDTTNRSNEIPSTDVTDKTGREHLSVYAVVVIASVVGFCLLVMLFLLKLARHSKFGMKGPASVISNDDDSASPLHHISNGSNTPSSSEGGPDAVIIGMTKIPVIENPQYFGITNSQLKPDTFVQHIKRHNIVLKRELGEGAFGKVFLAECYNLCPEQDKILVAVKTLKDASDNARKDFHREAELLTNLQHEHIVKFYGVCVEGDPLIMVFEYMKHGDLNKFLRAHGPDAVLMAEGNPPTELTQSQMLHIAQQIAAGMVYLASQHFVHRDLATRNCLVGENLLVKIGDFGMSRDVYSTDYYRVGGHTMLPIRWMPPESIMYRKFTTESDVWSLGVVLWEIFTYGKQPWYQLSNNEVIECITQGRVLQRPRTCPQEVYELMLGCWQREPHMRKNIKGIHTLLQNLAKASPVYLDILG

| SMILES | retention by CMNPs with immobilized nicotinic receptors (washing/elution, HPLC) [1] | nonspecific binding to CMNPs from parental HEK cell line not expressing nicotinic receptors [3] | also measured |
| --- | --- | --- | --- |
| O=C(O)/C=C/c1ccc(O)c(O)c1 [caffeic acid] | absence | – | – |
| CCCC(=O)OCC[N+](C)(C)C.[I-] [butyrylcholine, butyrylcholine iodide] | absence | – | – |
| CN1CCCC1c1cccnc1 (stereo not drawn) [nicotine] | selectively retained | lack of nonspecific binding | retention by / interaction with CMNPs with immobilized TrkB receptors [2]: retained small amount; retention by / interaction with CMNPs with immobilized TrkB receptors ([2]; listed as Nicotine): interacted both with CMNPs with and without TrkB receptors; interaction with negative control CMNPs without TrkB receptors [4]: interacted both with CMNPs with and without TrkB receptors |
| c1cncc([C@@H]2CCCCN2)c1 [anabasine] | selectively retained | lack of nonspecific binding | – |
| O=c1cccc2n1C[C@@H]1CNC[C@H]2C1 [cytisine] | selectively retained | lack of nonspecific binding | – |
| COc1ccc2cc3[n+](cc2c1OC)CCc1cc2c(cc1-3)OCO2 [berberine] | absence | – | – |
| O=c1cc(-c2ccccc2)oc2c(O)c(O)ccc12 [7,8-dihydroxyflavone] | – | – | retention by / interaction with CMNPs with immobilized TrkB receptors [2]: interacted only with CMNPs with TrkB receptors; retention by / interaction with CMNPs with immobilized TrkB receptors ([2]; listed as 7,8-DHF): retained; conversion of ATP to ADP by CMNPs with TrkB receptors ([5]; 24-hour incubation, 4° C.): almost complete conversion of ATP to ADP; conversion of ATP to ADP by CMNPs with TrkB receptors ([5]; 30 and 60 min, 37° C.): progressing conversion of ATP to ADP; conversion of ATP to ADP by nanoparticles themselves (structures inside CMNPs) ([5]; nanoparticles without cell membrane, ATP (5 mM), activator 100 μM): did not lead to the conversion of ATP to ADP; interaction with negative control CMNPs without TrkB receptors [4]: no interaction |
